Reference: ChEMBL document CHEMBL6153037, “Developing dual-responsive quinolinium prodrugs of 8-hydroxyquinoline by harnessing the dual chelating sites” (Eur J Med Chem, 2025)
Active and inactive are the calls of the source. The rule behind the calls is not given here.

Experiments:
[1] = Prodrug conversion in PBS at pH 7.4 containing H2O2 assessed as 8-HQ release by measuring retention time at 50 uM measured after 15 mins by HPLC analysis; format: ADME; settings: buffer, pH 7.4, 0.25 h
[2] = Prodrug conversion in PBS at pH 7.4 containing H2O2 assessed as 4-hydroxybenzyl alcohol release by measuring retention time at 50 uM measured after 15 mins by HPLC analysis; format: ADME; settings: buffer, pH 7.4, 0.25 h
[3] = Stability of compound in PBS at pH 7.4 containing H2O2 assessed as compound remaining at 50 uM measured after 30 mins by HPLC analysis; format: physicochemical; settings: buffer, pH 7.4, 0.5 h
HeLa = assay: Cytotoxicity against CuCl2-treated human HeLa cells assessed as inhibition of cell viability incubated for 48 hrs by MTT assay; format: functional, cell-based
[4] = Cytotoxicity against human MCF-10A cells assessed as cell survival at 10 uM incubated for 48 hrs by MTT assay relative to control; format: toxicity, cell-based; settings: read-out: Survival
MDA-MB-231 [5] = assay: Cytotoxicity against NAC-treated human MDA-MB-231 cells incubated for 48 hrs by MTT assay; format: functional, cell-based
MCF-10A [6] = assay: Cytotoxicity against human MCF-10A cells assessed as increase in red fluorescence at 0.4 to 0.8 uM by Calcein AM/PI staining based analysis; format: toxicity, cell-based; settings: dose 0.4-0.8 µM
MDA-MB-231 [7] = assay: Inhibition of DNA synthesis in human MDA-MB-231 cells by EdU incorporation assay; format: functional, cell-based
MDA-MB-231 [8] = assay: Induction of apoptosis in human MDA-MB-231 cells assessed as viable cells at 0.4 uM incubated for 24 hrs by Annexin V-FITC/PI staining based flow cytometry (reference value: 86.2 %); format: functional; settings: read-out: Activity
MDA-MB-231 [9] = assay: Induction of apoptosis in human MDA-MB-231 cells assessed as viable cells at 0.8 uM incubated for 24 hrs by Annexin V-FITC/PI staining based flow cytometry (reference value: 86.2 %); format: functional; settings: read-out: Activity
MDA-MB-231 [10] = assay: Induction of apoptosis in human MDA-MB-231 cells assessed as early apoptotic cells at 0.8 uM incubated for 24 hrs by Annexin V-FITC/PI staining based flow cytometry (reference value: 7.39 %); format: functional
MDA-MB-231 [11] = assay: Induction of apoptosis in human MDA-MB-231 cells assessed as necrotic cells at 0.8 uM incubated for 24 hrs by Annexin V-FITC/PI staining based flow cytometry (reference value: 0.59 %); format: functional
MDA-MB-231 [12] = assay: Induction of apoptosis in human MDA-MB-231 cells assessed as late apoptotic cells at 1.2 uM incubated for 24 hrs by Annexin V-FITC/PI staining based flow cytometry (reference value: 5.81 %); format: functional
MDA-MB-231 [13] = assay: Induction of apoptosis in human MDA-MB-231 cells assessed as necrotic cells at 1.2 uM incubated for 24 hrs by Annexin V-FITC/PI staining based flow cytometry (reference value: 0.59 %); format: functional
[14] = Induction of apoptosis in human MCF-10A cells assessed as viable cells at 0.4 uM incubated for 24 hrs by Annexin V-FITC/PI staining based flow cytometry (reference value: 92.5 %); format: toxicity, cell-based; settings: read-out: Activity
MCF-10A [15] = assay: Induction of apoptosis in human MCF-10A cells assessed as early apoptotic cells at 0.4 uM incubated for 24 hrs by Annexin V-FITC/PI staining based flow cytometry (reference value: 2.96 %); format: toxicity, cell-based
MCF-10A [16] = assay: Induction of apoptosis in human MCF-10A cells assessed as late apoptotic cells at 0.4 uM incubated for 24 hrs by Annexin V-FITC/PI staining based flow cytometry (reference value: 3.13 %); format: toxicity, cell-based
[17] = Induction of apoptosis in human MCF-10A cells assessed as viable cells at 0.8 uM incubated for 24 hrs by Annexin V-FITC/PI staining based flow cytometry (reference value: 92.5 %); format: toxicity, cell-based; settings: read-out: Activity
MCF-10A [18] = assay: Induction of apoptosis in human MCF-10A cells assessed as necrotic cells at 0.8 uM incubated for 24 hrs by Annexin V-FITC/PI staining based flow cytometry (reference value: 1.38 %); format: toxicity, cell-based
[19] = Induction of apoptosis in human MCF-10A cells assessed as viable cells at 1.2 uM incubated for 24 hrs by Annexin V-FITC/PI staining based flow cytometry (reference value: 92.5 %); format: toxicity, cell-based; settings: read-out: Activity
MCF-10A [20] = assay: Induction of apoptosis in human MCF-10A cells assessed as early apoptotic cells at 1.2 uM incubated for 24 hrs by Annexin V-FITC/PI staining based flow cytometry (reference value: 2.96 %); format: toxicity, cell-based
MCF-10A [21] = assay: Induction of apoptosis in human MCF-10A cells assessed as necrotic cells at 1.2 uM incubated for 24 hrs by Annexin V-FITC/PI staining based flow cytometry (reference value: 1.38 %); format: toxicity, cell-based
MDA-MB-231 [22] = assay: Induction of cell cycle arrest in human MDA-MB-231 cells assessed as accumulation at G0/G1 phase at 0.8 uM by PI staining based flow cytometry (reference value: 64.6 %); format: functional
MDA-MB-231 [23] = assay: Anti-migration activity in human MDA-MB-231 cells at 0.4 uM incubated for 24 hrs by wound healing assay (reference value: 45.4 %); format: functional
MDA-MB-231 [24] = assay: Anti-migration activity in human MDA-MB-231 cells at 0.8 uM incubated for 24 hrs by wound healing assay (reference value: 45.4 %); format: functional
MDA-MB-231 [25] = assay: Anti-migration activity in human MDA-MB-231 cells at 0.8 uM incubated for 48 hrs by wound healing assay (reference value: 65.2 %); format: functional
MCF-10A [26] = assay: Inhibition of mitochondrial membrane potential in human MCF-10A cells assessed as increase in green fluorescence at 0.8 uM incubated for 24 hrs by JC-1 dye based analysis; format: toxicity, cell-based
MDA-MB-231 [27] = assay: Inhibition of mitochondrial membrane potential in human MDA-MB-231 cells assessed as decrease in ATP level at 0.4 to 0.8 uM incubated for 24 hrs by luminescence based analysis; format: functional, cell-based; settings: dose 0.4-0.8 µM
MDA-MB-231 [28] = assay: Inhibition of mitochondrial membrane potential in human MDA-MB-231 cells assessed as increase in intracellular calcium level at 0.4 to 0.8 uM incubated for 24 hrs by Fluo-4 AM dye based analysis; format: functional, cell-based; settings: dose 0.4-0.8 µM
MDA-MB-231 [29] = assay: Antitumor activity against human MDA-MB-231 cells assessed as reduction in sphere volume incubated for 6 hrs followed by medium replacement without compound measured after 6 days by microscopic analysis; format: functional, cell-based
MDA-MB-231 [30] = assay: Antitumor activity against human MDA-MB-231 cells xenografted in BALB/c nude mouse assessed as tumor growth inhibition at 10 to 20 mg/kg, iv administered every two days for 21 days; format: functional, organism-based; settings: dose 10-20 mg/kg, time 21.0 day
MDA-MB-231 [31] = assay: Antitumor activity against human MDA-MB-231 cells xenografted in BALB/c nude mouse assessed as tumor size at 20 mg/kg, iv administered every two days for 21 days (reference value: 1940 mm3); format: functional; settings: time 21 day
MDA-MB-231 [32] = assay: Antitumor activity against human MDA-MB-231 cells xenografted in BALB/c nude mouse at 20 mg/kg, iv administered every two days for 21 days relative to control; format: functional; settings: MDA-MB-231, 504 h, time 21 day, read-out: TGI
[33] = Toxicity in BALB/c nude mouse xenografted with human MDA-MB-231 cells assessed as body weight change at 10 to 20 mg/kg, iv administered every two days for 21 days; format: organism-based; settings: in vivo, 504 h, dose 10-20 mg/kg, time 21 day

## CC1(C)OB(c2ccc(C[n+]3cccc4cccc(O)c43)cc2)OC1(C)C.[Br-]
[1]
  Retention_time: 2.8 min
[2]
  Retention_time: 10.2 min
[3]
  Stability: Unstable
HeLa
  IC50: 11.2 µM
[4]
  viability at 48 h, 10 µM: 86%
MDA-MB-231 [5]
  Activity: inactive
MCF-10A [6]
  Activity: Non-toxic
MDA-MB-231 [7]
  inhibition: Active
MDA-MB-231 [8]
  viability at 0.4 µM: 71.2%
MDA-MB-231 [9]
  viability at 0.8 µM: 24.8%
MDA-MB-231 [10]
  Activity: 40.3%
MDA-MB-231 [11]
  Activity: 7.08%
MDA-MB-231 [12]
  Activity: 16.4%
MDA-MB-231 [13]
  Activity: 6.03%
[14]
  viability at 24 h, 0.4 µM: 94.9%
MCF-10A [15]
  Activity: 2%
MCF-10A [16]
  Activity: 2.74%
[17]
  viability at 24 h, 0.8 µM: 93.7%
MCF-10A [18]
  Activity: 0.36%
[19]
  viability at 24 h, 1.2 µM: 93.3%
MCF-10A [20]
  Activity: 2.12%
MCF-10A [21]
  Activity: 0.84%
MDA-MB-231 [22]
  Activity: 74.2%
MDA-MB-231 [23]
  Activity: 16.5%
MDA-MB-231 [24]
  Activity: 7.3%
MDA-MB-231 [25]
  Activity: 12.8%
MCF-10A [26]
  Activity: Non-toxic
MDA-MB-231 [27]
  inhibition: Active
MDA-MB-231 [28]
  inhibition: Active
MDA-MB-231 [29]
  Activity: Active
MDA-MB-231 [30]
  inhibition: Active
MDA-MB-231 [31]
  Activity: 710 mm3
MDA-MB-231 [32]
  inhibition in vivo at 20 mg/kg: 63.1%
[33]
  Activity: Non-toxic
